Experimental data reported in paper PMC8184781, “A histone H3K4me1-specific binding protein is required for siRNA accumulation and DNA methylation at a subset of loci targeted by RNA-directed DNA methylation” (Nature Communications, 2021).

Experiments:
RDM15 Tudor domain [1] = target: T1, RDM15 Tudor domain (Arabidopsis thaliana, UniProt Q8GUP3); assay: Isothermal titration calorimetry (ITC), RDM15 Tudor domain (WT); assay type: binding; details: compared with H3K4me0, H3K4me2 and H3K4me3
T1 construct: hexahistidine-yeast Sumo (cleaved yes); made in house; host or cells: E. coli BL21(DE3)
T1 sequence (Q8GUP3 599-663): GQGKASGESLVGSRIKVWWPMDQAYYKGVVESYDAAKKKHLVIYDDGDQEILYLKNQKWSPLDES
Experimental: ITC binding was measured using a Microcal PEAQ-ITC instrument (Malvern). The purified proteins were dialyzed against a buffer containing 100 mM NaCl, 20 mM HEPES, pH 7.0, and 2 mM β-mercaptoethanol and were diluted to a concentration of about 0.8–0.12 mM. The peptide was dissolved in the same buffer with a concentration of about 1.0–1.5 mM. All of the titrations were performed at 20 °C. The data were analyzed using the Origin 7.0 program.

[2] = test system: mutated RDM15 (W616A/Y623A/D643A/D645A); assay: Co-immunoprecipitation of H3K4me1 with mutated RDM15, western blot; assay type: binding, Arabidopsis; details: mutated RDM15-3xMYC/rdm15-3 plants, anti-MYC IP
Source text: We expressed the mutated RDM15 (W616A/Y623A/D643A/D645A) incapable of binding to H3K4me1 in rdm15-3 mutant plants, generating mutated RDM15-3xMYC/rdm15-3 plants.
(§1) H3K4me1 mark. a. Histone peptide array assay showing the binding preference of RDM15 to H3K4me1. Error bar represents s.d. (n=3 independent experiments). Data are presented as mean values +/- SD and the dots are the corresponding data points. b. ITC binding curves between the RDM15 tudor domain and H3K4me1 and H4K20me1 peptides indicate that H3K4me1 is the optimal binding partner for […]
(§2) The RDM15-3xFLAG/rdm15-3 and mutated
(§3) RDM15-3xMYC/rdm15-3 plants were used to perform protein immunoprecipitation with anti-FLAG and anti-MYC antibodies, respectively, and then anti-H3K4me1 antibody was used to detect H3K4me1 . d. Methylation specific PCR results showing the methylation levels at several RDM15 -dependent RdDM loci. McrBC, an enzyme cleaving methylated DNA, was used to digest genomic DNA from different pla nts with two biological replicates. Stronger PCR signal represent s lower methylation level. RDM15-3xFLAG rescued the hypomethylation phenotype in rdm15-3, however, the Mutated RDM15-3xMYC didn’t rescue the methylation phenotype .
We thank the reviewer for their comments. […]
(§4) Moreover, the H3K4me1 mark has been previously detected by ChIP-seq at whole-genome level in a previous study (Inagaki et al., EMBO J., 2017). […]

RDM15 Tudor domain [3] = target: T1, RDM15 Tudor domain; assay: Histone peptide array (MODified Histone Peptide Array), GST-fused RDM15; assay type: binding; details: several hundred combinations of histone marks
Experimental: Histone peptide array assay was performed using the MODified Histone Peptide Array kit (Active Motif) according to the manufacturer’s instructions. In brief, the slide was first blocked for 2 h at room temperature. After it was washed three times with TBST buffer [10 mM Tris·HCl (pH 7.5), 30 mM NaCl, and 0.05% Tween-20], the slide was incubated overnight with […] of GST-fused purified RDM15 protein at 4 °C in […] of binding buffer [50 mM Hepes (pH 8.0), 150 mM NaCl, 2 mM DTT, and 0.05% Nonidet P-40]. After it was washed three additional times with TBST buffer, the slide was incubated with anti-GST primary antibody at 1/3000 dilution and secondary antibody at 1/5000 dilution in TBST buffer for 1 h at room temperature, respectively. After the washing, the slide was visualized using Lumi-light ECL substrate (Roche). The intensity of the blotted slide was analyzed according to the instructions of the analysis software of the MODified Histone Peptide Array.

RDM15 = assay: Co-immunoprecipitation of H3K4me1 with wild-type RDM15, western blot; assay type: binding, Arabidopsis; details: wild-type RDM15 (RDM15-3xFLAG/rdm15-3 plants), anti-FLAG IP
Source text: as §1, §2, §3
We thank the reviewer for their comments. We will response the comments in the following with our response highlighted in red.
The authors have fully addressed my concerns.I think this paper meets the standard of a Nature […]
as §4

Structure (SMILES): CNCCCC[C@H](NC(=O)[C@@H](NC(=O)[C@H](CCCNC(=N)N)NC(=O)[C@H](C)N)[C@@H](C)O)C(=O)N[C@@H](CCC(N)=O)C(=O)N[C@H](C(=O)N[C@@H](C)C(=O)N[C@@H](CCCNC(=N)N)C(=O)N[C@@H](CCCCN)C(=O)N[C@@H](CO)C(=O)N[C@H](C(=O)NCC(=O)NCC(=O)N[C@@H](CCCCN)C(=O)N[C@@H](C)C(=O)O)[C@@H](C)O)[C@@H](C)O [H3K4me1]
- Binding in words (ITC) (RDM15 Tudor domain [1]): bound much more strongly to the monomethylation state of H3K4
- Co-immunoprecipitation of H3K4me1 [2]: not by mutated RDM15
- Binding in words (histone peptide array) (RDM15 Tudor domain [3]): significant binding
- Co-immunoprecipitation of H3K4me1 (RDM15): co-immunoprecipitated by wild-type RDM15
